What was measured:
Hepatitis B virus [1] = test: Antiviral activity against HBV in human HepG2.2.15 cells assessed as reduction in viral replication incubated for 5 days by real-time PCR analysis; type: functional, organism-based; settings: HepG2.2.15, 120 h
[2] = Selectivity index, ratio of CC50 for cytotoxicity in human HepG2.2.15 cells assessed as reduction in cell viability to EC50 for antiviral activity against HBV in human HepG2.2.15 cells assessed as reduction in viral replication; type: toxicity, cell-based; settings: read-out: Ratio CC50/EC50
[3] = Cytotoxicity in human HepG2.2.15 cells assessed as reduction in cell viability; type: toxicity, cell-based, HepG2 2.2.15
[4] = Metabolic stability in rat liver microsomes assessed as compound remaining measured after 30 mins; type: ADME, Microsome; settings: read-out: Stability
[5] = Metabolic stability in human liver microsomes assessed as compound remaining measured after 30 mins; type: ADME, Microsome; settings: read-out: Stability
[6] = Metabolic stability in mouse liver microsomes assessed as compound remaining measured after 30 mins; type: ADME, Microsome; settings: read-out: Stability
[7] = Selectivity index, ratio of CC50 for cytotoxicity in human HepG2-hNTCP cells assessed as reduction in cell viability to EC50 for antiviral activity against HBV in human HepG2-hNTCP cells assessed as reduction in viral replication; type: toxicity, cell-based; settings: read-out: Ratio CC50/EC50
Hepatitis B virus [8] = test: Antiviral activity against HBV infected in human HepG2 cells expressing NTCP assessed as intracellular HBc level at 1 uM incubated for 6 days by Western blot analysis (reference value: 100 %); type: functional; settings: time 6 day
[9] = Cytotoxicity in human HepG2-hNTCP cells assessed as reduction in cell viability; type: toxicity, cell-based
Hepatitis B virus [10] = test: Antiviral activity against HBV infected in human HepG2 cells expressing NTCP assessed as capsid associated HBV DNA level at 1 uM incubated for 6 days by Western blot analysis (reference value: 100 %); type: functional; settings: time 6 day
Hepatitis B virus [11] = test: Antiviral activity against HBV infected in human HepG2 cells expressing NTCP assessed as viral DNA replication at 1 uM incubated for 6 days by Southern blot analysis (reference value: 100 %); type: functional; settings: time 6 day
Hepatitis B virus [12] = test: Antiviral activity against HBV infected in human HepG2 cells expressing NTCP assessed as ratio of capsid associated HBV DNA level at 1 uM incubated for 6 days by Western blot analysis (reference value: 100 %); type: functional; settings: time 6 day
Hepatitis B virus [13] = test: Antiviral activity against HBV in human HepG2 cells expressing NTCP assessed as reduction in viral replication; type: functional, organism-based
Hepatitis B virus [14] = test: Antiviral activity against HBV infected in human HepG2 cells expressing NTCP assessed as capsid level at 1 uM incubated for 6 days by Western blot analysis (reference value: 100 %); type: functional; settings: time 6 day
[15] = Selectivity index, ratio of CC50 for cytotoxicity in human HepaRG cells assessed as reduction in cell viability to EC50 for antiviral activity against HBV in human HepaRG cells assessed as reduction in viral replication; type: toxicity, cell-based; settings: read-out: Ratio CC50/EC50
[16] = Cytotoxicity in human HepaRG cells assessed as reduction in cell viability; type: toxicity, cell-based
Hepatitis B virus [17] = test: Antiviral activity against HBV in human HepaRG cells assessed as reduction in viral replication; type: functional, organism-based

Compound	EC50 (Hepatitis B virus [1])	selectivity ratio [2]	CC50 [3]	also measured
Cc1cc(NC(=O)c2cc(S(=O)(=O)N3CCOCC3)c(F)cc2N)ccc1F	4.58 µM	94.7	433 µM	
Nc1cc(F)c(S(=O)(=O)N2CCNCC2)cc1C(=O)Nc1ccc(F)c(F)c1	1.19 µM	26.4	31.5 µM	
C[C@@H](CO)NS(=O)(=O)c1cc(C(=O)Nc2ccc(F)c(F)c2)c(N)cc1F	2.12 µM	73.7	156 µM	
COCCNS(=O)(=O)c1cc(C(=O)Nc2ccc(F)c(F)c2)c(N)cc1F	3.02 µM	32.1	97 µM	
CC(C)(NS(=O)(=O)c1cc(C(=O)Nc2ccc(F)c(C(F)F)c2)c(N)cc1F)C1COC1	0.58 µM	277	161 µM	remaining at 0.5 h [4]: 5.63%; remaining at 0.5 h [5]: 17.2%; remaining at 0.5 h [6]: 0.03%
Nc1cc(F)c(S(=O)(=O)NC2CCOCC2)cc1C(=O)Nc1ccc(F)c(F)c1	1.4 µM	21.1	29.5 µM	
Nc1cc(F)c(S(=O)(=O)NC2CCNC2)cc1C(=O)Nc1ccc(F)c(F)c1 (centres undefined)	7.52 µM	14.5	109 µM	
Nc1cc(F)c(S(=O)(=O)N[C@@H]2CCOC2=O)cc1C(=O)Nc1ccc(F)c(C(F)F)c1	1.61 µM	147	238 µM	
N#Cc1cc(NC(=O)c2cc(S(=O)(=O)N3CCOCC3)c(F)cc2N)ccc1F	3.01 µM	> 299	> 900 µM	
C[C@@H](NS(=O)(=O)c1cc(C(=O)Nc2ccc(F)c(C(F)F)c2)c(N)cc1F)C1COC1	0.47 µM	399	187 µM	
O=C(Nc1cc(F)c(F)c(F)c1)c1ccc(F)c(S(=O)(=O)N2CCC(O)CC2)c1				selectivity ratio [7]: 75.7; Activity (Hepatitis B virus [8]): 82%; CC50 [9]: 24.2 µM; Activity (Hepatitis B virus [10]): 95%; Activity (Hepatitis B virus [11]): 61%; Ratio (Hepatitis B virus [12]): 69%; EC50 (Hepatitis B virus [13]): 0.32 µM; Activity (Hepatitis B virus [14]): 136%; selectivity ratio [15]: 6.15; CC50 [16]: 23 µM; EC50 (Hepatitis B virus [17]): 3.74 µM
C[C@H](CO)NS(=O)(=O)c1cc(C(=O)Nc2ccc(F)c(F)c2)c(N)cc1F	0.69 µM	296	204 µM	
Nc1cc(F)c(S(=O)(=O)NC2CCOC2)cc1C(=O)Nc1ccc(F)c(F)c1 (centres undefined)	0.49 µM	53.6	26.3 µM	
Nc1cc(F)c(S(=O)(=O)N2CCOCC2)cc1C(=O)Nc1ccc(F)c(Cl)c1	> 30 µM		198 µM	
Nc1cc(F)c(S(=O)(=O)NC2CNC2)cc1C(=O)Nc1ccc(F)c(F)c1	1.52 µM	56.5	85.8 µM	
Nc1cc(F)c(S(=O)(=O)N[C@H]2COC(=O)C2)cc1C(=O)Nc1ccc(F)c(C(F)F)c1	2.95 µM	237	698 µM	
Nc1cc(F)c(S(=O)(=O)N[C@@H]2CNC2=O)cc1C(=O)Nc1ccc(F)c(C(F)F)c1	> 30 µM		> 900 µM	

Further lines, with some results ahead:

EC50 (Hepatitis B virus [1])	Compound	selectivity ratio [2]	CC50 [3]	also measured
0.44 µM	Nc1cc(F)c(S(=O)(=O)N2CC3(COC3)C2)cc1C(=O)Nc1ccc(F)c(F)c1	386	170 µM	
0.07 µM	CN(C1COC1)S(=O)(=O)c1cc(C(=O)Nc2ccc(F)c(C(F)F)c2)c(N)cc1F	115	7.68 µM	
0.1 µM	Nc1cc(F)c(S(=O)(=O)N2CC3COCC3C2)cc1C(=O)Nc1ccc(F)c(C(F)F)c1 (centres undefined)	> 9330	> 900 µM	remaining at 0.5 h [4]: 0.79%; remaining at 0.5 h [5]: 0.76%; remaining at 0.5 h [6]: 0.09%
0.25 µM	CC(C)NS(=O)(=O)c1cc(C(=O)Nc2ccc(F)c(F)c2)c(N)cc1F	36.8	9.29 µM	
0.25 µM	Nc1cc(F)c(S(=O)(=O)N2CC3(COC3)C2)cc1C(=O)Nc1ccc(F)c(C(F)F)c1	> 3540	> 900 µM	
0.41 µM	Nc1cc(F)c(S(=O)(=O)N2CCOCC2)cc1C(=O)Nc1ccc(F)c(F)c1	610	248 µM	
0.16 µM	Nc1cc(F)c(S(=O)(=O)N2CCOCC2)cc1C(=O)Nc1ccc(F)c(C(F)F)c1	4240	681 µM	
0.22 µM	Nc1cc(F)c(S(=O)(=O)N2CCCOCC2)cc1C(=O)Nc1ccc(F)c(F)c1	48.6	10.7 µM	
0.06 µM	CC1(NS(=O)(=O)c2cc(C(=O)Nc3ccc(F)c(C(F)F)c3)c(N)cc2F)COC1	458	26.1 µM	
0.05 µM	Nc1cc(F)c(S(=O)(=O)N2CCCOCC2)cc1C(=O)Nc1ccc(F)c(C(F)F)c1	96.2	5.14 µM	
0.22 µM	Nc1cc(F)c(S(=O)(=O)N2CCS(=O)(=O)CC2)cc1C(=O)Nc1ccc(F)c(C(F)F)c1	1740	385 µM	
0.36 µM	Nc1cc(F)c(S(=O)(=O)N2CC3CCC(C2)O3)cc1C(=O)Nc1ccc(F)c(F)c1	38.5	14 µM	
0.06 µM	CC1(CNS(=O)(=O)c2cc(C(=O)Nc3ccc(F)c(C(F)F)c3)c(N)cc2F)COC1	14300	855 µM	remaining at 0.5 h [4]: 8.38%; remaining at 0.5 h [5]: 23.6%; remaining at 0.5 h [6]: 1.37%
0.13 µM	Nc1cc(F)c(S(=O)(=O)NCC2COC2)cc1C(=O)Nc1ccc(F)c(C(F)F)c1	1160	150 µM	remaining at 0.5 h [4]: 26%; remaining at 0.5 h [5]: 56.2%; remaining at 0.5 h [6]: 31.9%
0.18 µM	Nc1cc(F)c(S(=O)(=O)NC2CCC2)cc1C(=O)Nc1ccc(F)c(C(F)F)c1	125	22.8 µM	

From ChEMBL document CHEMBL6177968, “Development of sulfamoylbenzamide-based capsid assembly modulators for hepatitis B virus capsid assembly” (Eur J Med Chem, 2025)
